“And” between values parts separate entries of the source, which are not always exact repeats. Equal entries are not always repeated.
What was measured:
[1] = target: T1, Human neutrophil elastase (HNE) (Homo sapiens, UniProt P08246); assay: HNE colorimetric inhibition and steady-state kinetics assay (MeOSuc-Ala-Ala-Pro-Val-pNA), native conditions; type: biochemical; settings: inhibitor 0.1-100 μM; for Mode of inhibition (Lineweaver-Burk plots): steady-state kinetics
T1 construct: purchased Abcam
T1 sequence (P08246 30-267): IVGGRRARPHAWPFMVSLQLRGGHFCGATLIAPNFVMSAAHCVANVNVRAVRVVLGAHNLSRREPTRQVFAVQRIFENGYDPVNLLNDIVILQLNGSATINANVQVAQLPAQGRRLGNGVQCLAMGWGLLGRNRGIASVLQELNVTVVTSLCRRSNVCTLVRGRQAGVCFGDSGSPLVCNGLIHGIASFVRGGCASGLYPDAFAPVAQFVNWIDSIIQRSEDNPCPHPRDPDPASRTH
Description: HNE activity was assessed through a colorimetric assay based on the hydrolysis of the synthetic peptide substrate MeOSuc-Ala-Ala-Pro-Val-pNA [37]. To determine the steady-state kinetic parameters, 0.4 μg of HNE (corresponding to a final concentration of approximately 0.05 μM) were added to an incubation buffer consisting of 50 mM Tris-HCl, pH 7.8 containing 500 mM NaCl. The reaction was initiated by adding a fixed volume (20 µL) of intermediate substrate working solutions to the enzyme–buffer mixture, reaching a final reaction volume of 200 µL. These working solutions were prepared by diluting a 20 mM substrate stock solution in DMSO with incubation buffer, ensuring that the final DMSO concentration remained constant at 1% (v/v) across all tested substrate concentrations (ranging from 0.075 to 2.4 mM). This approach was applied to all samples, including blanks, to maintain a uniform solvent environment. The mixtures were incubated at 37 °C for 45 min. […] The reaction was then quenched with 20 μL of 0.45 M trichloroacetic acid (TCA). After cooling on ice for 30 min, the samples were centrifuged at 11,500 rpm for 10 min to remove precipitated proteins. The concentration of p-nitroaniline (p-NA) released into the supernatant was determined by measuring the absorbance at 410 nm. All assays were performed in triplicate, and the kinetic parameters were determined by fitting the experimental data to the Michaelis–Menten equation using GraphPad Prism 8.0 software (GraphPad Software, San Diego, CA, USA).
Stock solutions of both inhibitors were prepared in DMSO and diluted with incubation buffer to obtain intermediate working solutions. A fixed volume of these working solutions was added to each reaction mixture so that the final DMSO concentration remained constant at 1% (v/v) across all inhibitor concentrations. […]
Subsequently, the inhibition constants (Ki) were determined independently from IC50 values by performing steady-state kinetic assays at varying concentrations of both substrate and inhibitors. […]

[2] = target: T2, HNE under oxidizing conditions (oxidized HNE) (Homo sapiens, UniProt P08246); assay: HNE inhibition assay under oxidizing conditions (HNE pre-incubated with 44 mM H2O2); type: biochemical; settings: for remaining activity at 100 µM: HNE under oxidizing conditions (44 mM H2O2), maximum inhibitor concentration 100 μM, read-out: Residual Activity at Maximum Inhibitor Concentration (%)
T2 construct: purchased Abcam
T2 sequence (P08246 30-247 limits assumed): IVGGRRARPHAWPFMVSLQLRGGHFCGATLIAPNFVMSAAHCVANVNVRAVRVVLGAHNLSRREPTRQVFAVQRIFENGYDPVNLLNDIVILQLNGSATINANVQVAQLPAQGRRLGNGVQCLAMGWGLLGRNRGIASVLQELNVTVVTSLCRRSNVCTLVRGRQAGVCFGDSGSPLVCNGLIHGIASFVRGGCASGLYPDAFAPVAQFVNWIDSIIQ
Description: HNE activity under oxidative conditions was determined using the colorimetric assay described above. Briefly, HNE was pre-incubated with 1 μL of 30% (w/v) H2O2 (final concentration 44 mM in a total reaction volume of 200 μL) for 60 min at 37 °C. The oxidative conditions used in this study were designed to promote cumulative oxidative modifications of HNE rather than to reproduce physiological ROS concentrations, allowing simulation of oxidative stress in chronically inflamed tissues where repeated ROS exposure leads to progressive protein oxidation. The kinetic parameters of oxidized HNE were determined as described above. Subsequently, inhibition assays were performed by initiating the reaction with substrate (final concentration 0.15 mM) in the presence of increasing concentrations of inhibitor (0.1–100 μM). The reaction mixtures were then incubated at 37 °C for 45 min and then terminated by the addition of 20 μL of 0.45 M TCA. Samples were cooled on ice, centrifuged, and analyzed as described in Section 2.4.
Residual enzymatic activity (%) was calculated relative to HNE activity in the absence of inhibitors, set as 100%. The lowest observed activity under the experimental conditions was taken as the maximal inhibition achieved within this assay range.

[3] = Inhibitor stability under oxidative conditions by direct-infusion ESI-MS; type: physicochemical; settings: 100 μM compound, 44 mM H2O2, 30 min, 37 °C, no HNE
Description: Mass spectrometry analysis was performed using an Advion Interchim Scientific expression® Compact Mass Spectrometer (CMS) (Advion Interchim Scientific, Ithaca, NY, USA) equipped with an ESI source. Stock solutions of each inhibitor were prepared in DMSO and diluted in an assay buffer to a final concentration of 100 μM (DMSO ≤ 1% v/v). Aliquots were incubated in the presence or absence of H2O2 (44 mM final concentration) for 30 min at 37 °C, matching the oxidative treatment used in the enzymatic assays. After incubation, samples were diluted 1:1 (v/v) with water containing 0.1% formic acid and directly analyzed in both positive- and negative-ion mode. Mass spectra were analyzed with Mass Express software version 5.1.

[4] = Cytotoxicity on A549 cell monolayers (resazurin reduction assay); type: cell-based; settings: human, A549 cells (confluent monolayer), 0.1 to 1000 µM, 16 h exposure, read-out: Cell viability (% of untreated control)
Description: Cells were obtained from the American Type Culture Collection (ATCC, Manassas, VA, USA) and cultured according to the supplier’s instructions. Cells were maintained in DMEM supplemented with 10% fetal bovine serum (FBS) and seeded into sterile 96-well plates at a density of 1 × 10^5 cells per well, allowing for the formation of a confluent monolayer prior to treatment. After 24 h incubation at 37 °C (5% CO2), the culture medium was replaced with 200 μL of fresh medium containing ten-fold dilutions of the test compounds, ranging from 0.1 to 1000 µM.
After a 16 h exposure period, cell viability was assessed via the resazurin reduction assay. Briefly, 30 μL of a 0.01% resazurin solution (Sigma-Aldrich, St. Louis, MO, USA) was added to each well and incubated for 4 h at 37 °C. The reduction of resazurin to resorufin by metabolically active cells was quantified using a ClarioSTAR microplate reader (BMG Labtech, Ortenberg, Germany), with excitation and emission wavelengths set at 520 nm and 580 nm, respectively. All experiments were performed in triplicate, and cell viability was expressed as a percentage relative to untreated control wells.

Row | Mode of inhibition (Lineweaver-Burk plots) [1] | IC50 ([1]; substrate 0.15 mM, 37 °C, 45 min, read-out: IC50 against HNE activity) | IC50 ([2]; HNE pre-incubated with 44 mM H2O2, 60 min, 37 °C, substrate 0.15 mM) [nM] | remaining activity at 100 µM [2] [%] | Chemical stability under oxidizing conditions (ESI-MS spectra vs untreated control) [3] | Inhibition of oxidized HNE at the highest tested concentration ([2]; 100 μM inhibitor, HNE pre-treated with 44 mM H2O2) | Structure (SMILES) | viability at 16 h [4] [%]
1 | competitive inhibition | 2800 nM and 2840 nM | 4000 ± 410 | < 20 | no additional peaks |  | Cc1c(-c2ccnn2C)cc(C(=O)NCc2ccc(S(C)(=O)=O)cn2)c(=O)n1-c1cccc(C(F)(F)F)c1 [Alvelestat] | ~100
2 | competitive inhibition |  |  | > 80 | no additional peaks | failed to achieve significant inhibition | CC(C)(C)C(=O)Oc1ccc(S(=O)(=O)Nc2ccccc2C(=O)NCC(=O)O)cc1 [Sivelestat] | ~100

— article PMC13165411 (Molecules, 2026)
